Laboratory results as given in patent publication EP0646579A1, “Ketonic indane derivatives and heterocyclic analysis and their use in therapy” (LABORATOIRE INNOTHERA Société Anonyme, priority 1993, dated 1995).
pEC50: −log10 of the molar value.

Tests used:
veines saphènes de lapin = test: Contraction of isolated rabbit saphenous veins produced by KCl (40 mM); assay type: cell-based; settings: for augmentation des contractions des veines saphènes de lapin produites par le KCl: KCl 40 mM, compounds 10 nM à 30 mM; for pEC50: increase of KCl (40 mM) contraction of rabbit saphenous veins, read-out: DE₅₀
From the text: L'effet contractile est mesuré in vitro : • par la force de contraction développée par des anneaux vasculaires quiescents ou stimulés (soit électriquement soit par des agents physiologiques) et maintenus dans des conditions isométriques, • par la pression développée par des réseaux vasculaires perfusés à débit constant.
Les composés de formule (I) et leurs sels éventuels augmentent la contraction des veines saphènes animales produite par la noradrénaline et la dépolarisation (solution hyperpotassique) sans affecter, dans la majorité des cas, les réponses contractiles artérielles. A titre illustratif, les composés des exemples 1, 2, 3, 5 (10 nM à 30 mM) augmentent de plus de 40 % (DE₅₀ + 0,3 microM) les contractions des veines saphènes de lapin produites par le KCl (40 mM).

[1] = system: hyperperméabilité vasculaire induite par le zymosan; test: Vascular hyperpermeability induced by zymosan, in vivo; settings: oral administration of 1-20 mg/kg
From the text: La perméabilité vasculaire est étudiée in vivo et in vitro par la mesure de l'extravasation d'albumine ou de colorant liant l'albumine (Bleu Evans). In vivo, l'hyperperméabilité est induite par l'injection d'une solution d'histamine, de bradykinine ou de zymosan. Les modèles in vitro permettent de réaliser des hyperpressions (sur un territoire vasculaire isolé) et/ou des réactions vasculaires inflammatoires.
A titre illustratif, les composés des exemples 1, 2, 3, 5 inhibent l'hyperperméabilité vasculaire induite par le zymosan après administration orale de 1-20 mg/kg.

[2] = Free radical scavenging, DPPH model; assay type: biochemical; settings: DPPH as stable free radical, in vitro
From the text: L'effet "piégeur de radicaux libres" global est étudié in vitro par un modèle utilisant le 1,1-diphényl-2-picrylhydrazyl (DPPH) comme radical libre stable, méthode dérivée de celle décrite par Lamaison et col., Plantes Médic. et Phytothérapie, XXII, 1988, 231-234.

rat = test: Carrageenan-induced pleurisy in the rat; assay type: in vivo; settings: 5 mg/kg i.p. twice; for migration leucocytaire dans la cavité pleurale: 6 hours after carrageenan injection; for oedème: 6 hours after carrageenan injection into the pleural cavity
Description: L'activité antiinflammatoire est démontrée par la mesure de l'inhibition de l'oedème et de la migration leucocytaire après induction d'une pleurésie chez le rat par injection de carragénine dans la cavité pleurale (Almeida et col., J. Pharmacol. Exp. Therap., 1980, 214 : 74).
Le composé des exemples 31, 3, 5 administrés deux fois en i.p. à la dose de 5 mg/kg inhibent l'oedème et la migration leucocytaire dans la cavité pleurale, 6 heures après injection de carragénine dans le modèle de la pleurésie chez le rat.

pEC50 (veines saphènes de lapin) | SMILES | augmentation des contractions des veines saphènes de lapin produites par le KCl (veines saphènes de lapin) [%] | hyperperméabilité vasculaire induite par le zymosan [1] | effet antiradicalaire [2] | migration leucocytaire dans la cavité pleurale (rat) | oedème (rat)
~6.52 | O=c1c(=NNc2nc3ccccc3s2)c(=O)c2ccccc12 [exemple 1, 2-(Benzothiazol-2-yl-hydrazono)-2.3-dihydro-1.3-dioxo-1H-indene] | > 40 | inhibent | – | – | –
~6.52 | O=c1c(=NNc2nc3ccccc3o2)c(=O)c2ccccc12 [exemple 2, 2-(Benzoxazol-2-yl-hydrazono)-2.3-dihydro-1.3-dioxo-1H-indene] | > 40 | inhibent | effet antiradicalaire | – | –
~6.52 | O=c1c(=NNc2nc3ccccc3[nH]2)c(=O)c2ccccc12 [exemple 3, 2-(Benzimidazol-2-yl-hydrazono)-2.3-dihydro-1.3-dioxo-1H-indene] | > 40 | inhibent | – | inhibent | inhibent
~6.52 | O=c1c(=NNc2nc3cnccc3[nH]2)c(=O)c2ccccc12 [exemple 5, 2-(5-Azabenzimidazol-2-yl-hydrazono)-2.3-dihydro-1.3-dioxo-1H-indene] | > 40 | inhibent | – | inhibent | inhibent
– | O=C(NN=c1c(=O)c2cccnc2c1=O)Nc1ccccc1 [exemple 6, 5.7-Dioxo-6-(phenylaminocarbonylhydrazono)cyclopenta[b]pyridine] | – | – | effet antiradicalaire | – | –
